# Assay results: paper PMC6673703, “14-3-3 signal adaptor and scaffold proteins mediate GPCR trafficking” (Scientific Reports, 2019)
# Molecular target: T1, sphingosine-1-phosphate receptor 1 (S1PR1) (Homo sapiens, UniProt P21453)
# T1 construct: full-length, C-terminal TEV fusion
# Test: LinkLight S1PR1/β-arrestin interaction assay in HEK293 cells
# Assay type: cell-based
# T1 sequence (P21453 whole entry, the tested form may be a part): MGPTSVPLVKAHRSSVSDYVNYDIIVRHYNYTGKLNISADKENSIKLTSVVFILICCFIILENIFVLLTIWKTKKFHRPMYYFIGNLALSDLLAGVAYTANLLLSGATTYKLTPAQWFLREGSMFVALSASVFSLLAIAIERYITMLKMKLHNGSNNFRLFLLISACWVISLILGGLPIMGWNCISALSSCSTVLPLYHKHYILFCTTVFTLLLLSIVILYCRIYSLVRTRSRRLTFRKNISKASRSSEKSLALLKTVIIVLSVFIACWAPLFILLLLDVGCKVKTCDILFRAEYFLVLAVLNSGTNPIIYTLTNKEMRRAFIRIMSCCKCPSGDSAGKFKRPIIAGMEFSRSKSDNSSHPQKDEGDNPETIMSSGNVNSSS
# T1 sequence (P32121 whole entry partner, the tested form may be a part): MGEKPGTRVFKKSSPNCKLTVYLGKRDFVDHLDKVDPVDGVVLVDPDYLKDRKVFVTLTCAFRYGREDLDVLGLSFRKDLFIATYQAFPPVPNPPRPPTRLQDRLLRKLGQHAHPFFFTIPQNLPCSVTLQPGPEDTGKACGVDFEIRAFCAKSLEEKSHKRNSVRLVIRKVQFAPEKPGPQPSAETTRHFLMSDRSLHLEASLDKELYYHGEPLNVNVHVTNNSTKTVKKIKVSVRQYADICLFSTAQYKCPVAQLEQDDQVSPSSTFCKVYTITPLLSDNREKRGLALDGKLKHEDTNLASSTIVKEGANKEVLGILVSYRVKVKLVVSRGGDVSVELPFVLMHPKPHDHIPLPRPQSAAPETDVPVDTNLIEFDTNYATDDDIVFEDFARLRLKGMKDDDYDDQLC
compound,measurement,value
CCCCCCCCCCCCC/C=C/[C@@H](O)[C@@H](N)COP(=O)(O)O [S1P],EC50,129 nM
